Experimental findings from PMC5218480 (PLoS ONE, 2017) are described below.

Each structure is given as a SMILES string.

The test system of this experiment is MV-4-11 cells. As to the kind of experiment: Gene expression microarray analysis (Affymetrix PrimeView) and GSEA. It counts as cell-based, human. More on the design: RFU PODN (11730768_x_at) / Fold change /veh PODN (11730768_x_at) / RFU LINC00158 (11744669_a_at) / Fold change /veh LINC00158 (11744669_a_at) / RFU DUSP10 (11751237_a_at) / Fold change /veh DUSP10 (11751237_a_at) / RFU ID3 (11757404_x_at) / Fold change /veh ID3 (11757404_x_at) / RFU PLEKHG5 (11737974_s_at) / Fold change /veh PLEKHG5 (11737974_s_at) / RFU LRRC4B (11730491_at) / Fold change /veh LRRC4B (11730491_at) / RFU GIMAP4 (11747438_a_at) / Fold change /veh GIMAP4 (11747438_a_at) / RFU KRT8 (11758183_x_at) / Fold change /veh KRT8 (11758183_x_at) / RFU CNN1 (11734310_a_at) / Fold change /veh CNN1 (11734310_a_at) / RFU VPS37D (11726825_at) / Fold change /veh VPS37D (11726825_at) / RFU C10orf10 (11716522_x_at) / Fold change /veh C10orf10 (11716522_x_at) / RFU KIR2DL2 /// KIR2DL4 /// KIR2DL5A /// KIR2DL5B /// KIR2DS1 /// KIR2DS2 /// KIR2DS3 /// KIR2DS4 /// KIR3DL3 /// KIR3DL3 /// KIR3DS1 (11738374_at) / Fold change /veh KIR2DL2 /// KIR2DL4 /// KIR2DL5A /// KIR2DL5B /// KIR2DS1 /// KIR2DS2 /// KIR2DS3 /// KIR2DS4 /// KIR3DL3 /// KIR3DL3 /// KIR3DS1 (11738374_at) / RFU C1QL1 (11718748_at) / Fold change /veh C1QL1 (11718748_at) / RFU TMPRSS4 (11747572_a_at) / Fold change /veh TMPRSS4 (11747572_a_at) / RFU HAMP (11756126_x_at) / Fold change /veh HAMP (11756126_x_at) / RFU RNFT2 (11725882_a_at) / Fold change /veh RNFT2 (11725882_a_at) / RFU NR4A2 (11747474_a_at) / Fold change /veh NR4A2 (11747474_a_at) / RFU ABCC12 (11746883_a_at) / Fold change /veh ABCC12 (11746883_a_at) / RFU TMEM136 (11760407_x_at) / Fold change /veh TMEM136 (11760407_x_at) / RFU CLDN22 /// WWC2 (11732394_at) / Fold change /veh CLDN22 /// WWC2 (11732394_at) / RFU HLA-DPB1 (11760878_x_at) / Fold change /veh HLA-DPB1 (11760878_x_at) / RFU SPINT1 (11716480_a_at) / Fold change /veh SPINT1 (11716480_a_at) / RFU GAP43 (11754022_s_at) / Fold change /veh GAP43 (11754022_s_at) / RFU A4GNT (11735810_at) / Fold change /veh A4GNT (11735810_at) / RFU PRB3 (11715151_x_at) / Fold change /veh PRB3 (11715151_x_at) / RFU TUBB4B (11761932_at) / Fold change /veh TUBB4B (11761932_at) / RFU CAPN14 (11732068_a_at) / Fold change /veh CAPN14 (11732068_a_at) / RFU TMCC2 (11721928_a_at) / Fold change /veh TMCC2 (11721928_a_at) / RFU IRGQ (11745062_a_at) / Fold change /veh IRGQ (11745062_a_at) / RFU FAM174B (11720279_a_at) / Fold change /veh FAM174B (11720279_a_at) / RFU TMPRSS4 (11748680_a_at) / Fold change /veh TMPRSS4 (11748680_a_at) / RFU FAM212B (11763350_a_at) / Fold change /veh FAM212B (11763350_a_at) / RFU PLEKHG5 (11743358_a_at) / Fold change /veh PLEKHG5 (11743358_a_at) / RFU ZSCAN30 (11745921_a_at) / Fold change /veh ZSCAN30 (11745921_a_at) / RFU CMKLR1 (11741424_a_at) / Fold change /veh CMKLR1 (11741424_a_at) / RFU LOC101060620 /// MAPK8IP1 (11723275_at) / Fold change /veh LOC101060620 /// MAPK8IP1 (11723275_at) / RFU SPTSSB (11747773_x_at) / Fold change /veh SPTSSB (11747773_x_at) / RFU PRSS12 (11739890_at) / Fold change /veh PRSS12 (11739890_at) / RFU BIN1 (11741810_x_at) / Fold change /veh BIN1 (11741810_x_at) / RFU WNT11 (11732464_a_at) / Fold change /veh WNT11 (11732464_a_at) / RFU C10orf10 (11716521_a_at) / Fold change /veh C10orf10 (11716521_a_at) / RFU C5orf56 (11738089_at) / Fold change /veh C5orf56 (11738089_at) / RFU CYB561 (11721691_x_at) / Fold change /veh CYB561 (11721691_x_at) / RFU ANKRD19P (11752326_a_at) / Fold change /veh ANKRD19P (11752326_a_at) / RFU OR2T12 /// OR2T33 /// OR2T8 (11738714_s_at) / Fold change /veh OR2T12 /// OR2T33 /// OR2T8 (11738714_s_at) / RFU VCAN (11748164_a_at) / Fold change /veh VCAN (11748164_a_at) / RFU JSRP1 (11732532_at) / Fold change /veh JSRP1 (11732532_at) / RFU KRTAP10-11 (11738290_x_at) / Fold change /veh KRTAP10-11 (11738290_x_at) / RFU MYO3A (11730013_a_at) / Fold change /veh MYO3A (11730013_a_at) / RFU EBF3 (11725865_a_at) / Fold change /veh EBF3 (11725865_a_at) / RFU CAMK2N1 (11719241_x_at) / Fold change /veh CAMK2N1 (11719241_x_at) / RFU C5orf56 (11738088_a_at) / Fold change /veh C5orf56 (11738088_a_at) / RFU OLFML3 (11715873_a_at) / Fold change /veh OLFML3 (11715873_a_at) / RFU LOC100653217 /// NTM (11731650_a_at) / Fold change /veh LOC100653217 /// NTM (11731650_a_at) / RFU MAPK11 (11762145_a_at) / Fold change /veh MAPK11 (11762145_a_at) / RFU FIZ1 (11724087_x_at) / Fold change /veh FIZ1 (11724087_x_at) / RFU OASL (11726364_x_at) / Fold change /veh OASL (11726364_x_at) / RFU SOX15 (11748057_x_at) / Fold change /veh SOX15 (11748057_x_at) / RFU CD79A (11719716_a_at) / Fold change /veh CD79A (11719716_a_at) / RFU HIST1H1D (11736915_at) / Fold change /veh HIST1H1D (11736915_at) / RFU CASKIN2 (11723855_a_at) / Fold change /veh CASKIN2 (11723855_a_at) / RFU LOC730098 (11760151_x_at) / Fold change /veh LOC730098 (11760151_x_at) / RFU OR4N2 (11742367_at) / Fold change /veh OR4N2 (11742367_at) / RFU PRRT2 (11749266_a_at) / Fold change /veh PRRT2 (11749266_a_at) / RFU SNX32 (11753110_a_at) / Fold change /veh SNX32 (11753110_a_at) / RFU CDHR5 (11726645_a_at) / Fold change /veh CDHR5 (11726645_a_at) / RFU RCAN1 (11760418_a_at) / Fold change /veh RCAN1 (11760418_a_at) / RFU FAM167A (11723789_a_at) / Fold change /veh FAM167A (11723789_a_at) / RFU FAM26E (11764081_at) / Fold change /veh FAM26E (11764081_at) / RFU ISYNA1 (11749810_s_at) / Fold change /veh ISYNA1 (11749810_s_at) / RFU ACY1 (11761880_at) / Fold change /veh ACY1 (11761880_at) / RFU 11764098_at / Fold change /veh 11764098_at / RFU SAMD14 (11745864_x_at) / Fold change /veh SAMD14 (11745864_x_at) / RFU NPB (11741838_a_at) / Fold change /veh NPB (11741838_a_at) / RFU TMPRSS6 (11731388_a_at) / Fold change /veh TMPRSS6 (11731388_a_at) / RFU KRTAP10-2 (11738614_at) / Fold change /veh KRTAP10-2 (11738614_at) / RFU ARHGAP8 /// PRR5-ARHGAP8 (11727945_x_at) / Fold change /veh ARHGAP8 /// PRR5-ARHGAP8 (11727945_x_at) / RFU KRTAP5-7 /// NADSYN1 (11734609_at) / Fold change /veh KRTAP5-7 /// NADSYN1 (11734609_at) / RFU RASL12 (11751679_a_at) / Fold change /veh RASL12 (11751679_a_at) / RFU CDKN2B (11736163_a_at) / Fold change /veh CDKN2B (11736163_a_at) / RFU PRF1 (11729649_at) / Fold change /veh PRF1 (11729649_at) / RFU, ZNF638 /// ZNF638-IT1 / Fold change vs veh, ZNF638 /// ZNF638-IT1 / RFU, PANK3 / Fold change vs veh, PANK3 / RFU, SH3YL1 / Fold change vs veh, SH3YL1 / RFU, ZEB2 / Fold change vs veh, ZEB2 / RFU, NRIP1 / Fold change vs veh, NRIP1 / RFU, PTTG1IP / Fold change vs veh, PTTG1IP / RFU, CAPN2 / Fold change vs veh, CAPN2 / RFU, MED14 / Fold change vs veh, MED14 / RFU, SNORA58 / Fold change vs veh, SNORA58 / RFU, C1orf63 / Fold change vs veh, C1orf63 / RFU, LRRFIP1 / Fold change vs veh, LRRFIP1 / RFU, NDUFAF7 / Fold change vs veh, NDUFAF7 / RFU, SLC12A2 / Fold change vs veh, SLC12A2 / RFU, IBTK / Fold change vs veh, IBTK / RFU, ESF1 / Fold change vs veh, ESF1 / Fold change vs veh, TMEM50B / RFU, TAOK1 / Fold change vs veh, TAOK1 / RFU, ACBD3 / Fold change vs veh, ACBD3 / RFU, TMA16 / Fold change vs veh, TMA16 / RFU, RWDD3 / Fold change vs veh, RWDD3 / RFU, BCAT1 / Fold change vs veh, BCAT1 / RFU, EDEM3 / Fold change vs veh, EDEM3 / RFU, TMEM33 / Fold change vs veh, TMEM33 / RFU, WDR75 / Fold change vs veh, WDR75 / RFU, AHCTF1 / Fold change vs veh, AHCTF1 / RFU, TFRC / Fold change vs veh, TFRC / RFU, ZDHHC17 / Fold change vs veh, ZDHHC17 / RFU, NOM1 / Fold change vs veh, NOM1 / RFU, ARL8B / Fold change vs veh, ARL8B / RFU, ZBTB11 / Fold change vs veh, ZBTB11 / RFU, TAMM41 / Fold change vs veh, TAMM41 / RFU, KIAA1704 /// LOC100996395 / Fold change vs veh, KIAA1704 /// LOC100996395 / RFU, ING1 / Fold change vs veh, ING1 / RFU, TRMT61B / Fold change vs veh, TRMT61B / RFU, FUBP3 / Fold change vs veh, FUBP3 / RFU, TP53 / Fold change vs veh, TP53 / RFU, TNKS2 / Fold change vs veh, TNKS2 / RFU, ZFP14 / Fold change vs veh, ZFP14 / RFU, ACTR2 / Fold change vs veh, ACTR2 / RFU, PPP3R1 / Fold change vs veh, PPP3R1 / RFU, PIK3R1 / Fold change vs veh, PIK3R1 / RFU, HNRNPA1 / Fold change vs veh, HNRNPA1 / RFU, RNF170 / Fold change vs veh, RNF170 / RFU, ZNF28 / Fold change vs veh, ZNF28 / RFU, RNGTT / Fold change vs veh, RNGTT / RFU, OGT / Fold change vs veh, OGT / RFU, BRD1 / Fold change vs veh, BRD1 / RFU, MARS / Fold change vs veh, MARS / RFU, ZNF655 / Fold change vs veh, ZNF655 / RFU, FAHD1 / Fold change vs veh, FAHD1 / RFU, BDP1 / Fold change vs veh, BDP1 / RFU, LRRCC1 / Fold change vs veh, LRRCC1 / RFU, ARID1A / Fold change vs veh, ARID1A / RFU, ZNF146 / Fold change vs veh, ZNF146 / RFU, ZNF330 / Fold change vs veh, ZNF330 / RFU, GPN3 / Fold change vs veh, GPN3 / RFU, C9orf123 / Fold change vs veh, C9orf123 / RFU, N4BP2L2 / Fold change vs veh, N4BP2L2 / RFU, ARFIP1 / Fold change vs veh, ARFIP1 / RFU, FAM179B / Fold change vs veh, FAM179B / RFU, BCL10 / Fold change vs veh, BCL10 / RFU, UHRF1BP1L / Fold change vs veh, UHRF1BP1L / RFU, BET1 / Fold change vs veh, BET1 / RFU, CNOT2 / Fold change vs veh, CNOT2 / RFU, ZNF268 / Fold change vs veh, ZNF268 / Fold change vs veh, ZNF507 / RFU, DGCR2 / Fold change vs veh, DGCR2 / RFU, WDSUB1 / Fold change vs veh, WDSUB1 / Fold change vs veh, HSP90B1 /// MIR3652 / RFU, ADSS / Fold change vs veh, ADSS / RFU, GK / Fold change vs veh, GK / RFU, ZNF148 / Fold change vs veh, ZNF148 / RFU, TAF9 / Fold change vs veh, TAF9 / RFU, SLC1A5 / Fold change vs veh, SLC1A5 / RFU, SLMO2 / Fold change vs veh, SLMO2 / RFU, ABCC4 / Fold change vs veh, ABCC4 / RFU, LOC101060439 /// RAP1B / Fold change vs veh, LOC101060439 /// RAP1B / RFU, RFX7 / Fold change vs veh, RFX7 / RFU, GTPBP10 / Fold change vs veh, GTPBP10 / RFU, CNEP1R1 / Fold change vs veh, CNEP1R1 / RFU, BIVM-ERCC5 /// ERCC5 / Fold change vs veh, BIVM-ERCC5 /// ERCC5 / RFU, ILF3 / Fold change vs veh, ILF3 / RFU 11762660_at / Fold change /veh 11762660_at / RFU VCAN (11757783_s_at) / Fold change /veh VCAN (11757783_s_at) / RFU DDX43 (11728927_at) / Fold change /veh DDX43 (11728927_at) / RFU KRT8 (11758188_x_at) / Fold change /veh KRT8 (11758188_x_at) / RFU NKD1 (11759106_at) / Fold change /veh NKD1 (11759106_at) / RFU SRD5A1 (11742802_a_at) / Fold change /veh SRD5A1 (11742802_a_at) / RFU TPSAB1 /// TPSB2 (11721975_s_at) / Fold change /veh TPSAB1 /// TPSB2 (11721975_s_at) / RFU GSTM3 (11746129_a_at) / Fold change /veh GSTM3 (11746129_a_at) / RFU IL23R (11737362_x_at) / Fold change /veh IL23R (11737362_x_at) / RFU TMEM51 (11727254_a_at) / Fold change /veh TMEM51 (11727254_a_at) / RFU PIWIL2 (11732686_x_at) / Fold change /veh PIWIL2 (11732686_x_at) / RFU ORM1 (11744905_x_at) / Fold change /veh ORM1 (11744905_x_at) / RFU CCDC152 (11743942_at) / Fold change /veh CCDC152 (11743942_at) / RFU ECM1 (11717891_a_at) / Fold change /veh ECM1 (11717891_a_at) / RFU IL23R (11748794_a_at) / Fold change /veh IL23R (11748794_a_at) / RFU TNFAIP8L3 (11732012_x_at) / Fold change /veh TNFAIP8L3 (11732012_x_at) / RFU MBOAT4 (11741988_at) / Fold change /veh MBOAT4 (11741988_at) / RFU 11764193_at / Fold change /veh 11764193_at / RFU TMEM53 (11763286_at) / Fold change /veh TMEM53 (11763286_at) / RFU MAGEB2 (11727129_at) / Fold change /veh MAGEB2 (11727129_at) / RFU TMEM200A (11744735_a_at) / Fold change /veh TMEM200A (11744735_a_at) / RFU CCDC152 (11751479_a_at) / Fold change /veh CCDC152 (11751479_a_at) / RFU FAM211A (11726209_a_at) / Fold change /veh FAM211A (11726209_a_at) / RFU RGS16 (11746705_a_at) / Fold change /veh RGS16 (11746705_a_at) / RFU VCAN (11755009_s_at) / Fold change /veh VCAN (11755009_s_at) / RFU RHOB (11743442_s_at) / Fold change /veh RHOB (11743442_s_at) / RFU RGS16 (11720943_a_at) / Fold change /veh RGS16 (11720943_a_at) / RFU RGS16 (11720944_at) / Fold change /veh RGS16 (11720944_at) / RFU, VPS4B / Fold change vs veh, VPS4B / RFU, CREB1 / Fold change vs veh, CREB1 / RFU, DNAJC13 / Fold change vs veh, DNAJC13 / RFU, GNAQ / Fold change vs veh, GNAQ / RFU, CDK5R1 / Fold change vs veh, CDK5R1 / RFU, ZRANB3 / Fold change vs veh, ZRANB3 / RFU, CUL4A / Fold change vs veh, CUL4A / RFU, CCNY / Fold change vs veh, CCNY / RFU, UFL1 / Fold change vs veh, UFL1 / RFU, COG3 / Fold change vs veh, COG3 / RFU, DIAPH2 / Fold change vs veh, DIAPH2 / RFU, SKA2 / Fold change vs veh, SKA2 / RFU, AFF3 / Fold change vs veh, AFF3 / RFU, LMF1 / Fold change vs veh, LMF1 / RFU, IPO11 / Fold change vs veh, IPO11 / RFU, DFFB / Fold change vs veh, DFFB / RFU, FOXP1 / Fold change vs veh, FOXP1 / RFU, CARD8 / Fold change vs veh, CARD8 / RFU, STRN3 / Fold change vs veh, STRN3 / RFU, ADK / Fold change vs veh, ADK / RFU, RASSF2 / Fold change vs veh, RASSF2 / RFU, WIPF1 / Fold change vs veh, WIPF1 / RFU, LARP1B / Fold change vs veh, LARP1B / RFU, RASA1 / Fold change vs veh, RASA1 / RFU, RB1 / Fold change vs veh, RB1 / RFU, PPFIA1 / Fold change vs veh, PPFIA1 / RFU, MAT2A / Fold change vs veh, MAT2A / RFU, CCT5 / Fold change vs veh, CCT5 / RFU, WDR92 / Fold change vs veh, WDR92 / RFU, CUX1 / Fold change vs veh, CUX1 / RFU, TTC7A / Fold change vs veh, TTC7A / RFU, TMEM135 / Fold change vs veh, TMEM135 / RFU, DEPTOR / Fold change vs veh, DEPTOR / RFU, CPM / Fold change vs veh, CPM / RFU, DNAJB6 / Fold change vs veh, DNAJB6 / RFU, CACNA2D3 / Fold change vs veh, CACNA2D3 / RFU, DTX4 / Fold change vs veh, DTX4 / RFU, TFCP2 / Fold change vs veh, TFCP2 / RFU, GMCL1 /// GMCL1P1 / Fold change vs veh, GMCL1 /// GMCL1P1 / RFU, AEBP2 / Fold change vs veh, AEBP2 / RFU, SNHG1 /// SNORD22 /// SNORD25 /// SNORD26 /// SNORD27 /// SNORD28 /// SNORD29 /// SNORD31 / Fold change vs veh, SNHG1 /// SNORD22 /// SNORD25 /// SNORD26 /// SNORD27 /// SNORD28 /// SNORD29 /// SNORD31 / Fold change (Aza/veh), C12orf56 (ProbeSet 11735607_a_at) / Fold change (ACY-1035/veh), C12orf56 (ProbeSet 11735607_a_at) / Fold change (Aza/veh), FGFR1OP (ProbeSet 11751329_s_at) / Fold change (ACY-1035/veh), FGFR1OP (ProbeSet 11751329_s_at) / Fold change (Aza/veh), VPS36 (ProbeSet 11739960_a_at) / Fold change (ACY-1035/veh), VPS36 (ProbeSet 11739960_a_at) / RFU SYPL1 (11715823_x_at) / Fold change /veh SYPL1 (11715823_x_at) / RFU IGFBP7 (11715501_s_at) / Fold change /veh IGFBP7 (11715501_s_at) / RFU REEP3 (11722064_at) / Fold change /veh REEP3 (11722064_at) / RFU IGLL1 (11728026_x_at) / Fold change /veh IGLL1 (11728026_x_at): dose or concentration left out as unconfirmed. The note with it: ProbeSet 11758440_s_at; LIST B.

As to `Nc1ccc(-c2cccs2)cc1NC(=O)c1ccc2c(c1)cc(C1CC1)n2CCN1CCOCC1` [ACY-1035], the “RFU, RFX7” value stood at 47.76 RFU.
